According to publication PMC5218480 (PLoS ONE, 2017):

Tested on: MV-4-11 cells
Assay: Gene expression microarray analysis (Affymetrix PrimeView) and GSEA
Format: cell-based, human
Parameters: RFU PODN (11730768_x_at) / Fold change /veh PODN (11730768_x_at) / RFU LINC00158 (11744669_a_at) / Fold change /veh LINC00158 (11744669_a_at) / RFU DUSP10 (11751237_a_at) / Fold change /veh DUSP10 (11751237_a_at) / RFU ID3 (11757404_x_at) / Fold change /veh ID3 (11757404_x_at) / RFU PLEKHG5 (11737974_s_at) / Fold change /veh PLEKHG5 (11737974_s_at) / RFU LRRC4B (11730491_at) / Fold change /veh LRRC4B (11730491_at) / RFU GIMAP4 (11747438_a_at) / Fold change /veh GIMAP4 (11747438_a_at) / RFU KRT8 (11758183_x_at) / Fold change /veh KRT8 (11758183_x_at) / RFU CNN1 (11734310_a_at) / Fold change /veh CNN1 (11734310_a_at) / RFU VPS37D (11726825_at) / Fold change /veh VPS37D (11726825_at) / RFU C10orf10 (11716522_x_at) / Fold change /veh C10orf10 (11716522_x_at) / RFU KIR2DL2 /// KIR2DL4 /// KIR2DL5A /// KIR2DL5B /// KIR2DS1 /// KIR2DS2 /// KIR2DS3 /// KIR2DS4 /// KIR3DL3 /// KIR3DL3 /// KIR3DS1 (11738374_at) / Fold change /veh KIR2DL2 /// KIR2DL4 /// KIR2DL5A /// KIR2DL5B /// KIR2DS1 /// KIR2DS2 /// KIR2DS3 /// KIR2DS4 /// KIR3DL3 /// KIR3DL3 /// KIR3DS1 (11738374_at) / RFU C1QL1 (11718748_at) / Fold change /veh C1QL1 (11718748_at) / RFU TMPRSS4 (11747572_a_at) / Fold change /veh TMPRSS4 (11747572_a_at) / RFU HAMP (11756126_x_at) / Fold change /veh HAMP (11756126_x_at) / RFU RNFT2 (11725882_a_at) / Fold change /veh RNFT2 (11725882_a_at) / RFU NR4A2 (11747474_a_at) / Fold change /veh NR4A2 (11747474_a_at) / RFU ABCC12 (11746883_a_at) / Fold change /veh ABCC12 (11746883_a_at) / RFU TMEM136 (11760407_x_at) / Fold change /veh TMEM136 (11760407_x_at) / RFU CLDN22 /// WWC2 (11732394_at) / Fold change /veh CLDN22 /// WWC2 (11732394_at) / RFU HLA-DPB1 (11760878_x_at) / Fold change /veh HLA-DPB1 (11760878_x_at) / RFU SPINT1 (11716480_a_at) / Fold change /veh SPINT1 (11716480_a_at) / RFU GAP43 (11754022_s_at) / Fold change /veh GAP43 (11754022_s_at) / RFU A4GNT (11735810_at) / Fold change /veh A4GNT (11735810_at) / RFU PRB3 (11715151_x_at) / Fold change /veh PRB3 (11715151_x_at) / RFU TUBB4B (11761932_at) / Fold change /veh TUBB4B (11761932_at) / RFU CAPN14 (11732068_a_at) / Fold change /veh CAPN14 (11732068_a_at) / RFU TMCC2 (11721928_a_at) / Fold change /veh TMCC2 (11721928_a_at) / RFU IRGQ (11745062_a_at) / Fold change /veh IRGQ (11745062_a_at) / RFU FAM174B (11720279_a_at) / Fold change /veh FAM174B (11720279_a_at) / RFU TMPRSS4 (11748680_a_at) / Fold change /veh TMPRSS4 (11748680_a_at) / RFU FAM212B (11763350_a_at) / Fold change /veh FAM212B (11763350_a_at) / RFU PLEKHG5 (11743358_a_at) / Fold change /veh PLEKHG5 (11743358_a_at) / RFU ZSCAN30 (11745921_a_at) / Fold change /veh ZSCAN30 (11745921_a_at) / RFU CMKLR1 (11741424_a_at) / Fold change /veh CMKLR1 (11741424_a_at) / RFU LOC101060620 /// MAPK8IP1 (11723275_at) / Fold change /veh LOC101060620 /// MAPK8IP1 (11723275_at) / RFU SPTSSB (11747773_x_at) / Fold change /veh SPTSSB (11747773_x_at) / RFU PRSS12 (11739890_at) / Fold change /veh PRSS12 (11739890_at) / RFU BIN1 (11741810_x_at) / Fold change /veh BIN1 (11741810_x_at) / RFU WNT11 (11732464_a_at) / Fold change /veh WNT11 (11732464_a_at) / RFU C10orf10 (11716521_a_at) / Fold change /veh C10orf10 (11716521_a_at) / RFU C5orf56 (11738089_at) / Fold change /veh C5orf56 (11738089_at) / RFU CYB561 (11721691_x_at) / Fold change /veh CYB561 (11721691_x_at) / RFU ANKRD19P (11752326_a_at) / Fold change /veh ANKRD19P (11752326_a_at) / RFU OR2T12 /// OR2T33 /// OR2T8 (11738714_s_at) / Fold change /veh OR2T12 /// OR2T33 /// OR2T8 (11738714_s_at) / RFU VCAN (11748164_a_at) / Fold change /veh VCAN (11748164_a_at) / RFU JSRP1 (11732532_at) / Fold change /veh JSRP1 (11732532_at) / RFU KRTAP10-11 (11738290_x_at) / Fold change /veh KRTAP10-11 (11738290_x_at) / RFU MYO3A (11730013_a_at) / Fold change /veh MYO3A (11730013_a_at) / RFU EBF3 (11725865_a_at) / Fold change /veh EBF3 (11725865_a_at) / RFU CAMK2N1 (11719241_x_at) / Fold change /veh CAMK2N1 (11719241_x_at) / RFU C5orf56 (11738088_a_at) / Fold change /veh C5orf56 (11738088_a_at) / RFU OLFML3 (11715873_a_at) / Fold change /veh OLFML3 (11715873_a_at) / RFU LOC100653217 /// NTM (11731650_a_at) / Fold change /veh LOC100653217 /// NTM (11731650_a_at) / RFU MAPK11 (11762145_a_at) / Fold change /veh MAPK11 (11762145_a_at) / RFU FIZ1 (11724087_x_at) / Fold change /veh FIZ1 (11724087_x_at) / RFU OASL (11726364_x_at) / Fold change /veh OASL (11726364_x_at) / RFU SOX15 (11748057_x_at) / Fold change /veh SOX15 (11748057_x_at) / RFU CD79A (11719716_a_at) / Fold change /veh CD79A (11719716_a_at) / RFU HIST1H1D (11736915_at) / Fold change /veh HIST1H1D (11736915_at) / RFU CASKIN2 (11723855_a_at) / Fold change /veh CASKIN2 (11723855_a_at) / RFU LOC730098 (11760151_x_at) / Fold change /veh LOC730098 (11760151_x_at) / RFU OR4N2 (11742367_at) / Fold change /veh OR4N2 (11742367_at) / RFU PRRT2 (11749266_a_at) / Fold change /veh PRRT2 (11749266_a_at) / RFU SNX32 (11753110_a_at) / Fold change /veh SNX32 (11753110_a_at) / RFU CDHR5 (11726645_a_at) / Fold change /veh CDHR5 (11726645_a_at) / RFU RCAN1 (11760418_a_at) / Fold change /veh RCAN1 (11760418_a_at) / RFU FAM167A (11723789_a_at) / Fold change /veh FAM167A (11723789_a_at) / RFU FAM26E (11764081_at) / Fold change /veh FAM26E (11764081_at) / RFU ISYNA1 (11749810_s_at) / Fold change /veh ISYNA1 (11749810_s_at) / RFU ACY1 (11761880_at) / Fold change /veh ACY1 (11761880_at) / RFU 11764098_at / Fold change /veh 11764098_at / RFU SAMD14 (11745864_x_at) / Fold change /veh SAMD14 (11745864_x_at) / RFU NPB (11741838_a_at) / Fold change /veh NPB (11741838_a_at) / RFU TMPRSS6 (11731388_a_at) / Fold change /veh TMPRSS6 (11731388_a_at) / RFU KRTAP10-2 (11738614_at) / Fold change /veh KRTAP10-2 (11738614_at) / RFU ARHGAP8 /// PRR5-ARHGAP8 (11727945_x_at) / Fold change /veh ARHGAP8 /// PRR5-ARHGAP8 (11727945_x_at) / RFU KRTAP5-7 /// NADSYN1 (11734609_at) / Fold change /veh KRTAP5-7 /// NADSYN1 (11734609_at) / RFU RASL12 (11751679_a_at) / Fold change /veh RASL12 (11751679_a_at) / RFU CDKN2B (11736163_a_at) / Fold change /veh CDKN2B (11736163_a_at) / RFU PRF1 (11729649_at) / Fold change /veh PRF1 (11729649_at) / RFU, ZNF638 /// ZNF638-IT1 / Fold change vs veh, ZNF638 /// ZNF638-IT1 / RFU, PANK3 / Fold change vs veh, PANK3 / RFU, SH3YL1 / Fold change vs veh, SH3YL1 / RFU, ZEB2 / Fold change vs veh, ZEB2 / RFU, NRIP1 / Fold change vs veh, NRIP1 / RFU, PTTG1IP / Fold change vs veh, PTTG1IP / RFU, CAPN2 / Fold change vs veh, CAPN2 / RFU, MED14 / Fold change vs veh, MED14 / RFU, SNORA58 / Fold change vs veh, SNORA58 / RFU, C1orf63 / Fold change vs veh, C1orf63 / RFU, LRRFIP1 / Fold change vs veh, LRRFIP1 / RFU, NDUFAF7 / Fold change vs veh, NDUFAF7 / RFU, SLC12A2 / Fold change vs veh, SLC12A2 / RFU, IBTK / Fold change vs veh, IBTK / RFU, ESF1 / Fold change vs veh, ESF1 / Fold change vs veh, TMEM50B / RFU, TAOK1 / Fold change vs veh, TAOK1 / RFU, ACBD3 / Fold change vs veh, ACBD3 / RFU, TMA16 / Fold change vs veh, TMA16 / RFU, RWDD3 / Fold change vs veh, RWDD3 / RFU, BCAT1 / Fold change vs veh, BCAT1 / RFU, EDEM3 / Fold change vs veh, EDEM3 / RFU, TMEM33 / Fold change vs veh, TMEM33 / RFU, WDR75 / Fold change vs veh, WDR75 / RFU, AHCTF1 / Fold change vs veh, AHCTF1 / RFU, TFRC / Fold change vs veh, TFRC / RFU, ZDHHC17 / Fold change vs veh, ZDHHC17 / RFU, NOM1 / Fold change vs veh, NOM1 / RFU, ARL8B / Fold change vs veh, ARL8B / RFU, ZBTB11 / Fold change vs veh, ZBTB11 / RFU, TAMM41 / Fold change vs veh, TAMM41 / RFU, KIAA1704 /// LOC100996395 / Fold change vs veh, KIAA1704 /// LOC100996395 / RFU, ING1 / Fold change vs veh, ING1 / RFU, TRMT61B / Fold change vs veh, TRMT61B / RFU, FUBP3 / Fold change vs veh, FUBP3 / RFU, TP53 / Fold change vs veh, TP53 / RFU, TNKS2 / Fold change vs veh, TNKS2 / RFU, ZFP14 / Fold change vs veh, ZFP14 / RFU, ACTR2 / Fold change vs veh, ACTR2 / RFU, PPP3R1 / Fold change vs veh, PPP3R1 / RFU, PIK3R1 / Fold change vs veh, PIK3R1 / RFU, HNRNPA1 / Fold change vs veh, HNRNPA1 / RFU, RNF170 / Fold change vs veh, RNF170 / RFU, ZNF28 / Fold change vs veh, ZNF28 / RFU, RNGTT / Fold change vs veh, RNGTT / RFU, OGT / Fold change vs veh, OGT / RFU, BRD1 / Fold change vs veh, BRD1 / RFU, MARS / Fold change vs veh, MARS / RFU, ZNF655 / Fold change vs veh, ZNF655 / RFU, FAHD1 / Fold change vs veh, FAHD1 / RFU, BDP1 / Fold change vs veh, BDP1 / RFU, LRRCC1 / Fold change vs veh, LRRCC1 / RFU, ARID1A / Fold change vs veh, ARID1A / RFU, ZNF146 / Fold change vs veh, ZNF146 / RFU, ZNF330 / Fold change vs veh, ZNF330 / RFU, GPN3 / Fold change vs veh, GPN3 / RFU, C9orf123 / Fold change vs veh, C9orf123 / RFU, N4BP2L2 / Fold change vs veh, N4BP2L2 / RFU, ARFIP1 / Fold change vs veh, ARFIP1 / RFU, FAM179B / Fold change vs veh, FAM179B / RFU, BCL10 / Fold change vs veh, BCL10 / RFU, UHRF1BP1L / Fold change vs veh, UHRF1BP1L / RFU, BET1 / Fold change vs veh, BET1 / RFU, CNOT2 / Fold change vs veh, CNOT2 / RFU, ZNF268 / Fold change vs veh, ZNF268 / Fold change vs veh, ZNF507 / RFU, DGCR2 / Fold change vs veh, DGCR2 / RFU, WDSUB1 / Fold change vs veh, WDSUB1 / Fold change vs veh, HSP90B1 /// MIR3652 / RFU, ADSS / Fold change vs veh, ADSS / RFU, GK / Fold change vs veh, GK / RFU, ZNF148 / Fold change vs veh, ZNF148 / RFU, TAF9 / Fold change vs veh, TAF9 / RFU, SLC1A5 / Fold change vs veh, SLC1A5 / RFU, SLMO2 / Fold change vs veh, SLMO2 / RFU, ABCC4 / Fold change vs veh, ABCC4 / RFU, LOC101060439 /// RAP1B / Fold change vs veh, LOC101060439 /// RAP1B / RFU, RFX7 / Fold change vs veh, RFX7 / RFU, GTPBP10 / Fold change vs veh, GTPBP10 / RFU, CNEP1R1 / Fold change vs veh, CNEP1R1 / RFU, BIVM-ERCC5 /// ERCC5 / Fold change vs veh, BIVM-ERCC5 /// ERCC5 / RFU, ILF3 / Fold change vs veh, ILF3 / RFU 11762660_at / Fold change /veh 11762660_at / RFU VCAN (11757783_s_at) / Fold change /veh VCAN (11757783_s_at) / RFU DDX43 (11728927_at) / Fold change /veh DDX43 (11728927_at) / RFU KRT8 (11758188_x_at) / Fold change /veh KRT8 (11758188_x_at) / RFU NKD1 (11759106_at) / Fold change /veh NKD1 (11759106_at) / RFU SRD5A1 (11742802_a_at) / Fold change /veh SRD5A1 (11742802_a_at) / RFU TPSAB1 /// TPSB2 (11721975_s_at) / Fold change /veh TPSAB1 /// TPSB2 (11721975_s_at) / RFU GSTM3 (11746129_a_at) / Fold change /veh GSTM3 (11746129_a_at) / RFU IL23R (11737362_x_at) / Fold change /veh IL23R (11737362_x_at) / RFU TMEM51 (11727254_a_at) / Fold change /veh TMEM51 (11727254_a_at) / RFU PIWIL2 (11732686_x_at) / Fold change /veh PIWIL2 (11732686_x_at) / RFU ORM1 (11744905_x_at) / Fold change /veh ORM1 (11744905_x_at) / RFU CCDC152 (11743942_at) / Fold change /veh CCDC152 (11743942_at) / RFU ECM1 (11717891_a_at) / Fold change /veh ECM1 (11717891_a_at) / RFU IL23R (11748794_a_at) / Fold change /veh IL23R (11748794_a_at) / RFU TNFAIP8L3 (11732012_x_at) / Fold change /veh TNFAIP8L3 (11732012_x_at) / RFU MBOAT4 (11741988_at) / Fold change /veh MBOAT4 (11741988_at) / RFU 11764193_at / Fold change /veh 11764193_at / RFU TMEM53 (11763286_at) / Fold change /veh TMEM53 (11763286_at) / RFU MAGEB2 (11727129_at) / Fold change /veh MAGEB2 (11727129_at) / RFU TMEM200A (11744735_a_at) / Fold change /veh TMEM200A (11744735_a_at) / RFU CCDC152 (11751479_a_at) / Fold change /veh CCDC152 (11751479_a_at) / RFU FAM211A (11726209_a_at) / Fold change /veh FAM211A (11726209_a_at) / RFU RGS16 (11746705_a_at) / Fold change /veh RGS16 (11746705_a_at) / RFU VCAN (11755009_s_at) / Fold change /veh VCAN (11755009_s_at) / RFU RHOB (11743442_s_at) / Fold change /veh RHOB (11743442_s_at) / RFU RGS16 (11720943_a_at) / Fold change /veh RGS16 (11720943_a_at) / RFU RGS16 (11720944_at) / Fold change /veh RGS16 (11720944_at) / RFU, VPS4B / Fold change vs veh, VPS4B / RFU, CREB1 / Fold change vs veh, CREB1 / RFU, DNAJC13 / Fold change vs veh, DNAJC13 / RFU, GNAQ / Fold change vs veh, GNAQ / RFU, CDK5R1 / Fold change vs veh, CDK5R1 / RFU, ZRANB3 / Fold change vs veh, ZRANB3 / RFU, CUL4A / Fold change vs veh, CUL4A / RFU, CCNY / Fold change vs veh, CCNY / RFU, UFL1 / Fold change vs veh, UFL1 / RFU, COG3 / Fold change vs veh, COG3 / RFU, DIAPH2 / Fold change vs veh, DIAPH2 / RFU, SKA2 / Fold change vs veh, SKA2 / RFU, AFF3 / Fold change vs veh, AFF3 / RFU, LMF1 / Fold change vs veh, LMF1 / RFU, IPO11 / Fold change vs veh, IPO11 / RFU, DFFB / Fold change vs veh, DFFB / RFU, FOXP1 / Fold change vs veh, FOXP1 / RFU, CARD8 / Fold change vs veh, CARD8 / RFU, STRN3 / Fold change vs veh, STRN3 / RFU, ADK / Fold change vs veh, ADK / RFU, RASSF2 / Fold change vs veh, RASSF2 / RFU, WIPF1 / Fold change vs veh, WIPF1 / RFU, LARP1B / Fold change vs veh, LARP1B / RFU, RASA1 / Fold change vs veh, RASA1 / RFU, RB1 / Fold change vs veh, RB1 / RFU, PPFIA1 / Fold change vs veh, PPFIA1 / RFU, MAT2A / Fold change vs veh, MAT2A / RFU, CCT5 / Fold change vs veh, CCT5 / RFU, WDR92 / Fold change vs veh, WDR92 / RFU, CUX1 / Fold change vs veh, CUX1 / RFU, TTC7A / Fold change vs veh, TTC7A / RFU, TMEM135 / Fold change vs veh, TMEM135 / RFU, DEPTOR / Fold change vs veh, DEPTOR / RFU, CPM / Fold change vs veh, CPM / RFU, DNAJB6 / Fold change vs veh, DNAJB6 / RFU, CACNA2D3 / Fold change vs veh, CACNA2D3 / RFU, DTX4 / Fold change vs veh, DTX4 / RFU, TFCP2 / Fold change vs veh, TFCP2 / RFU, GMCL1 /// GMCL1P1 / Fold change vs veh, GMCL1 /// GMCL1P1 / RFU, AEBP2 / Fold change vs veh, AEBP2 / RFU, SNHG1 /// SNORD22 /// SNORD25 /// SNORD26 /// SNORD27 /// SNORD28 /// SNORD29 /// SNORD31 / Fold change vs veh, SNHG1 /// SNORD22 /// SNORD25 /// SNORD26 /// SNORD27 /// SNORD28 /// SNORD29 /// SNORD31 / Fold change (Aza/veh), C12orf56 (ProbeSet 11735607_a_at) / Fold change (ACY-1035/veh), C12orf56 (ProbeSet 11735607_a_at) / Fold change (Aza/veh), FGFR1OP (ProbeSet 11751329_s_at) / Fold change (ACY-1035/veh), FGFR1OP (ProbeSet 11751329_s_at) / Fold change (Aza/veh), VPS36 (ProbeSet 11739960_a_at) / Fold change (ACY-1035/veh), VPS36 (ProbeSet 11739960_a_at) / RFU SYPL1 (11715823_x_at) / Fold change /veh SYPL1 (11715823_x_at) / RFU IGFBP7 (11715501_s_at) / Fold change /veh IGFBP7 (11715501_s_at) / RFU REEP3 (11722064_at) / Fold change /veh REEP3 (11722064_at) / RFU IGLL1 (11728026_x_at) / Fold change /veh IGLL1 (11728026_x_at): dose or concentration left out as unconfirmed
Conditions: MV-4-11 cells, 48 hours

Nc1ncn([C@@H]2O[C@H](CO)[C@@H](O)[C@H]2O)c(=O)n1 [azacitidine]
Fold change /veh 11762660_at: 1.27
